Legend:
[1] = test system: MDAH-2774 cells; assay: Cell Titer Glo proliferation assay; assay type: cell-based, human; details: MDAH-2774, 72 hours, KRAS mutant
Method: (§1) Cell Lines and Culture. Human cancer cell lines, were obtained from American Type Culture Collection (ATCC, Manassas, Va.), or the following additional indicated sources, and cultured in media as described. […] Cells were maintained at 37° C. in an incubator under an atmosphere containing 5% CO2. The cells were routinely screened for the presence of mycoplasma (MycoAlert, Cambrex Bio Science, Baltimore, Md.). For growth inhibition assays, cells were plated and allowed to proliferate for 24 hours. […] Cell viability was assayed using the Cell Titer-Glo reagent (Promega Corp., Madison, Wis.).
(§2) Proliferation Assay. […] The basis of the assay is a luminescent quantitation of ATP present in a cell culture plate well. In essence, the greater the number of viable cells in the well, the greater the level of ATP present. The assay utilizes a substrate that binds ATP to produce a luminescent signal, which can be read on a luminometer. Unless otherwise noted, the manufacturer's instructions were followed exactly. Briefly, on Day 1, cells were plated in 120 μl of 10% serum-containing growth media at a density of 4000 cells/well in a white polystyrene 96 well assay plate. […] After 72 h incubation with the inhibitor, the cells were assayed. Results were calculated as a fraction of the DMSO controlled cells.

[2] = test system: OVCAR5 cells; assay: Cell Titer Glo proliferation assay; assay type: cell-based, human; details: OVCAR5, 72 hours, KRAS mutant
Method: as §1, §2

[3] = test system: BT20; assay: Cell Titer Glo proliferation assay; assay type: cell-based, human; details: BT20 breast cancer, PIK3CA mutant
From the text: (§3) Cell Lines and Culture. Human cancer cell lines, were obtained from American Type Culture Collection (ATCC, Manassas, Va.), or the following additional indicated sources, and cultured in media as described. Tumor types are also indicated: H295R (adrenocortical carcinoma; ATCC), NCI-[…], NCI-[…], SW1573 (NSCLC; ATCC), […], BxPC3 (pancreatic; ATCC), OVCAR5 (ovarian; NCI), MDAH-2774 (ovarian; ATCC), Igrov1 (ovarian; NCI), GEO (colon; Roswell Park Cancer Institute (RPCC)), HT-29 (colon; ATCC), RKO (colon; ATCC), […], 8226 (myeloma; ATCC), H929 (myeloma; ATCC), U266 (myeloma; ATCC), SKES1 (Ewings sarcoma; ATCC), RDES (Ewings sarcoma; ATCC), RD (rhabdomyosarcoma; ATCC), DU4475 (breast; ATCC), SKNAS (neuroblastoma; ATCC), 2650 (nasal SCC; ATCC), OVCAR4 (ovarian; NCI), A673 (Ewings sarcoma; ATCC), BT474 (breast; ATCC), 1386 (oral SCC; MSKCC, NY), 1186 (SCCHN; MSKCC, NY), Colo205 (colon; ATCC), HCT-15 (colon; ATCC), Fadu (oral SCC; ATCC), SKBR3 (breast; ATCC), 1483 (HNSCC; MSKCC, NY), HSC-2 (HNSCC; RIKEN BioResource Center, Tsukuba, Ibaraki, 305-0074, Japan), SKOV-3 (ovarian; ATCC), OVCAR-3 (ovarian; NCI), OVCAR-8 (ovarian; NCI), CaOV3 (ovarian; ATCC). […] The cells were routinely screened for the presence of mycoplasma (MycoAlert, Cambrex Bio Science, Baltimore, Md.). For growth inhibition assays, cells were plated and allowed to proliferate for 24 hours. […] Cell viability was assayed using the Cell Titer-Glo reagent (Promega Corp., Madison, Wis.). Proliferation Assay. […] The basis of the assay is a luminescent quantitation of ATP present in a cell culture plate well. In essence, the greater the number of viable cells in the well, the greater the level of ATP present. The assay utilizes a substrate that binds ATP to produce a luminescent signal, which can be read on a luminometer. Unless otherwise noted, the manufacturer's instructions were followed exactly. Briefly, on Day 1, cells were plated in 120 μl of 10% serum-containing growth media at a density of 4000 cells/well in a white polystyrene 96 well assay plate. […] After 72 h incubation with the inhibitor, the cells were assayed. Results were calculated as a fraction of the DMSO controlled cells.

[4] = test system: HCC1954; assay: Cell Titer Glo proliferation assay; assay type: cell-based, human; details: HCC1954 breast cancer, PIK3CA mutant
From the text: as §3

[5] = test system: LS174T; assay: Cell Titer Glo proliferation assay; assay type: cell-based, human; details: LS174T colon cancer, PIK3CA mutant
From the text: as §3

[6] = test system: MCF7; assay: Cell Titer Glo proliferation assay; assay type: cell-based, human; details: MCF7 breast cancer, PIK3CA mutant
From the text: as §3

[7] = test system: OVCAR4; assay: Cell Titer Glo proliferation assay; assay type: cell-based, human; details: OVCAR4, wild type KRAS
From the text: as §3

[8] = test system: OVK18; assay: Cell Titer Glo proliferation assay; assay type: cell-based, human; details: OVK18, wild type KRAS
From the text: as §3

[9] = test system: T47D; assay: Cell Titer Glo proliferation assay; assay type: cell-based, human; details: T47D breast cancer, PIK3CA mutant
From the text: as §3

[10] = test system: BxPC3; assay: Cell Titer Glo proliferation assay; assay type: cell-based; details: Homo sapiens, BXPC-3, read-out: EC50 in culture in vitro
From the text: as §3

[11] = test system: Colo205; assay: Cell Titer Glo proliferation assay; assay type: cell-based; details: Homo sapiens, COLO 205, read-out: EC50 in culture in vitro
From the text: as §3

[12] = test system: FaDu; assay: Cell Titer Glo proliferation assay; assay type: cell-based; details: Homo sapiens, read-out: EC50 in culture in vitro
From the text: as §3

[13] = test system: H295R; assay: Cell Titer Glo proliferation assay; assay type: cell-based; details: Homo sapiens, NCI-H295R; read-out: EC50 in culture in vitro
From the text: as §3

[14] = test system: H460; assay: Cell Titer Glo proliferation assay; assay type: cell-based; details: Homo sapiens, NCI-H460; read-out: EC50 in culture in vitro
From the text: as §3

[15] = test system: SKNAS; assay: Cell Titer Glo proliferation assay; assay type: cell-based; details: Homo sapiens, SK-N-AS, read-out: EC50 in culture in vitro
From the text: as §3

[16] = test system: SKNAS tumors; assay: Tumor xenograft study; details: treatment in vivo for 10-14 days
[17] = test system: BxPC3 tumors; assay: Tumor xenograft study; details: treatment in vivo for 10-14 days
[18] = test system: FaDu tumors; assay: Tumor xenograft study; details: treatment in vivo for 10-14 days
[19] = test system: H460 tumors; assay: Tumor xenograft study; details: treatment in vivo for 10-14 days

EC50, proliferation [2]: sub-micromolar
EC50 [10]: < 1000 nM
EC50 [11]: < 1000 nM
EC50 [13]: < 1000 nM
EC50 [14]: > 10000 nM
EC50 [15]: < 1000 nM
Compound: C[C@]1(O)C[C@@H](c2nc(-c3ccc4ccc(-c5ccccc5)nc4c3)c3c(N)nccn32)C1 [OSI-906, cis-3-[8-amino-1-(2-phenyl-quinolin-7-yl)-imidazo[1,5-a]pyrazin-3-yl]-1-methyl-cyclobutanol]
EC50, proliferation [1]: sub-micromolar
sensitivity to OSI-906 [3]: insensitive (insensitive (EC50>10 μM))
sensitivity to OSI-906 [4]: insensitive (insensitive (EC50>10 μM))
sensitivity to OSI-906 [5]: sensitive (sensitive (EC50<1 μM))
sensitivity to OSI-906 [6]: sensitive (sensitive (EC50<1 μM))
sensitivity to OSI-906 [7]: insensitive (insensitive (EC50>10 μM))
sensitivity to OSI-906 [8]: insensitive (insensitive (EC50>10 μM))
sensitivity to OSI-906 [9]: insensitive (insensitive (EC50>10 μM))
EC50 [12]: > 10000 nM
% TGI (tumor growth inhibition) [16]: 71%
% TGI (tumor growth inhibition) [17]: 56%
% TGI (tumor growth inhibition) [18]: < 30%
% TGI (tumor growth inhibition) [19]: < 30%

Source: patent US20110217309A1, “BIOLOGICAL MARKERS PREDICTIVE OF ANTI-CANCER RESPONSE TO INSULIN-LIKE GROWTH FACTOR-1 RECEPTOR KINASE INHIBITORS” (priority 2010, published 2011)
